A short description of data set [1]: MDCK passive permeability. It is filed as in vitro ADME, canine. Conditions: dog, MDCK.
A short description of data set [2]: Microsomal intrinsic clearance, human. To be noted: for CLint scaled at 1 µM: pooled liver microsomes, human microsomes; for Pred CLhep (h): scaled predicted hepatic clearance, human. It is filed as in vitro ADME. As for the experimental part:
(§1) SUPPLEMENTAL DMPK METHODS
(§2) All in vitro DMPK screening assays were performed at Q2 Solutions, Inc. (Indianapolis,
(§3) IN, USA). Microsomal Intrinsic Clearance: Test compounds (1 µM) were incubated
(§4) with 1 mg/mL of pooled liver microsomes in phosphate buffer at 37 °C. Samples were
(§5) taken at 0, 5, 10, 15, 30 and 45 min and analyzed by LC-MS. Testosterone was used as
(§6) the positive control. Two replicates were obtained and average CLint values are reported. […]

Data set [3] is described as follows: Microsomal intrinsic clearance, rat. It is filed as in vitro ADME. To be noted: for CLint scaled at 1 µM: pooled liver microsomes, rat microsomes; for Pred CLhep (r): scaled predicted hepatic clearance, rat. As for the experimental part:
as §1, §2, §3, §4, §5, §6

Data set [4] in a line: Plasma protein binding (equilibrium dialysis), human. It counts as in vitro ADME. As to the method: Plasma Protein and Brain Homogenate Binding: Plasma protein binding assays in human and rat plasma were performed using equilibrium dialysis method and a fast gradient elution LC-MS/MS to estimate the percent of compound which binds to protein over a 4.5 hour incubation period at 37 °C, while undergoing orbital shaking. Assay was performed using a HT dialysis micro equilibrium device using dialysis membrane strips. A time 0 sample was taken after protein matrix is created and samples were taken from […]
both the protein side and buffer side of the membrane after incubation and the parent compound was quantified. Brain homogenate binding was performed similarly as above using human brain homogenate, equilibrium dialysis, and LC-MS/MS methods. Fraction unbound is calculated by dividing the concentration of the buffer side by the concentration of the matrix side (plasma or brain). […]
Background: In equilibrium dialysis only unbound substance equilibrates across the membrane.

The next data set concerns L0 CSCs. Put plainly: 7-day CTG viability assay (GI50, cross-titrations) in L0. Conditions: Homo sapiens; L0, 7-day CTG; pGI50 = −log10[GI50(M)]. It counts as cell-based. As for the experimental part: (§7) For GI50 determination, compounds were stamped in technical triplicate, while for synergy cross-titrations dose-response matrices were prepared in technical duplicate. Different CSC lines, grown in suspension as spheroids, were split with Accutase and seeded directly on top of the prestamped compounds (50 μL of NBMc and 700 cells/well). The outer 4 rows (A,B and O,P row IDs) and 4 columns (1,2 and 23,24 column IDs) were filled with 80 μL of PBS to minimize evaporation. Cells were incubated with compounds for 7 days at 37°C/5% CO2 prior to the addition of 25 μL/well Cell-Titer Glo (Promega) and luminescence quantification on a Revvity EnVision plate reader. […] For the cross-titrations of 2 compounds, synergy scores were calculated using the MuSyC webserver ([79]).

For another data set, the system named is L1 CSCs. The experiment in a line: 7-day CTG viability assay (GI50, cross-titrations, irradiation) in L1. It is filed as cell-based, human. To be noted: for GI50: Homo sapiens; for log(GI50): L1 + RAD (2 Gy). As for the experimental part:
as §7, with “([79]). […]” for “([79]).”
(§8) antagonist (p53 activator) RG7112 following either 0 Gy or 2 Gy irradiation. Mean values are presented from a single biological replicate conducted in technical triplicate. Follow- […]
(§9) Cell viability was quantified as described in the Materials and Methods four days post-irradiation (seven days total). The

The next data set has as its system DI318 CSCs. Put plainly: 7-day CTG viability assay (GI50, cross-titrations, irradiation) in DI318. It is filed as cell-based. Conditions: Homo sapiens. As for the experimental part:
as §7, with “([79]). […]” for “([79]).”
as §8, §9

The next data set addresses WDR5 (Homo sapiens, UniProt P61964). Put plainly: WDR5 TR-FRET binding assay (displacement of labeled WIN-site peptide). Also on record: human WDR5 residues Ser22-Cys334 were codon optimized for E. coli; made in house; host or cells: E. coli T7 Express lysY/Iq (New England Biolabs), pET27 plasmid. As for the experimental part:
Recombinant human WDR5 was cloned, expressed, and purified as previously described ([37]). Briefly, human WDR5 residues Ser22-Cys334 were codon optimized for E. coli and cloned into a pET27 plasmid downstream of a SUMO-protease cleavable NT-His6-SUMO fusion. […] Induced cultures were pelleted; resuspended in 1X PBS pH 7.4, 300 mM NaCl, 20 mM imidazole, 5 mM β-Me, and 10% glycerol; and lysed via sonication. […] His-SUMO-WDR5 used in the TR-FRET assay was further purified via size exclusion chromatography using 1X PBS pH 7.4, 300 mM NaCl, 5 mM β-Me running buffer, concentrated to 1–2 mg/mL, aliquoted, and froze at –80°C for storage. Tag free WDR5 used for crystallography was dialyzed overnight with SUMO protease and passed over an NiNTA column to remove the His6-SUMO tag. Tag free WDR5 was further purified via size exclusion chromatography using 20 mM HEPES pH 7.0, 250 mM NaCl, and 5 mM DTT; concentrated to 10 mg/mL; aliquoted; and frozen at –80°C for storage.
Inhibitor Ki values were measured using a previously published competitive TR-FRET assay ([37]). […] The reported Ki values were calculated from at least 3 biological replicates completed in technical quadruplicate.

Where [5] appears, read: human plasma, read-out: PPB % fu (h).
[6] abbreviates: summary of Table 1, read-out: free fraction.
The mark [7] stands for this setting: L1, 0 Gy, read-out: log(GI50) (converted).
[8] abbreviates: L1, 7-day CTG, pGI50 = −log10[GI50(M)], read-out: pGI50 (converted).
Where [9] appears, read: DI318 + RAD (2 Gy), read-out: log(GI50) (converted).
Setting [10] is: […], DI318, 7-day CTG, pGI50 = −log10[GI50(M)], read-out: pGI50 (converted).

Read-outs that look alike come from different tables or passages of the source.

These results are taken from article PMC13313556, “Development and characterization of triazole-based WDR5 inhibitors for the treatment of glioblastoma” (JCI Insight, 2026).

In general, Papp A→B refers to the apparent permeability from the apical to the basolateral side of a cell layer. As usually defined, the CLint scaled is the capacity of the preparation to metabolise the compound, expressed as a volume cleared per time. Low values mean slow turnover, high ones rapid turnover. The term Ki denotes the equilibrium dissociation constant of an inhibitor or competing ligand from its target. High values mean weaker binding, low ones tighter binding. As for `COc1cc(Cn2nnc3c2CCc2c(-c4cn(C)nc4C(F)(F)F)cc(Cn4ccnc4C)cc2-3)cc(OC)c1` [C3TD078], the figures for the apparent permeability from apical to basolateral (Papp A→B) in data set [1] and in data set [1] (favorable permeability) were 4.9 ×10⁻⁶ cm/s and more than 2 ×10⁻⁶ cm/s, respectively. Further, the CLint scaled at 1 µM in data set [2] amounted to 1200 mL/min/kg; in data set [3], 316 mL/min/kg. For the same molecule, in data set [2], the “Pred CLhep (h)” value is 20.6 mL/min/kg. Also, in data set [3], the “Pred CLhep (r)” value was 63.1 mL/min/kg. For the same molecule, the fraction unbound at […] was 0.016 in data set [4] (setting [5]) and approximately 0.02 in data set [4] (setting [6]). Also, the GI50 was 1.26e-06 M in the data set on L0 CSCs; 5.01e-06 M in the data set with L1 CSCs (setting [7]); 5.01e-06 M in the data set with L1 CSCs (setting [8]); 6.31e-07 M with DI318 CSCs (setting [9]); 2e-06 M in the data set with DI318 CSCs (setting [10]). Besides, in the data set with L1 CSCs, the “log(GI50)” value is recorded as -5.3 M. Further, the inhibition constant Ki at WDR5 turned out to be 0.03 ± 0.002 nM.
`COc1cc(Cn2nnc3c2CCc2c-3cc(Cn3ccnc3C)cc2C2CC2)ccc1F` [C3TD343]: the Papp A→B was 5.2 ×10⁻⁶ cm/s in data set [1] and more than 2 ×10⁻⁶ cm/s in data set [1] (favorable permeability). For the same molecule, the intrinsic metabolic clearance (CLint scaled) at 1 µM in data set [2] worked out at 710 mL/min/kg; in data set [3], 378 mL/min/kg. The “Pred CLhep (h)” value in data set [2] is 20.3 mL/min/kg. Moreover, the “Pred CLhep (r)” value in data set [3] is listed as 64.1 mL/min/kg. Besides, the results for the fraction unbound at […] in data set [4] (setting [5]) and in data set [4] (setting [6]) were 0.007 and approximately 0.02, respectively. Also, the GI50 in the data set on L0 CSCs was 5.5e-06 M; in the data set with L1 CSCs (setting [7]) it was 7.94e-06 M; with L1 CSCs (setting [8]), 8.32e-06 M; with DI318 CSCs (setting [9]) it was 6.31e-06 M; in the data set on DI318 CSCs (setting [10]), 5.01e-06 M. Further, the “log(GI50)” value in the data set with L1 CSCs is -5.1 M. Moreover, the Ki at WDR5 came out at 5.9 ± 0.3 nM.
For `COc1cc(CN2CCc3c(cc(Cn4ccn(C)c4=N)cc3-c3ccc(F)cc3C)C2=O)cc(OC)c1` [C16, reference compound], the Papp A→B in data set [1] was determined as 0.1 ×10⁻⁶ cm/s. Moreover, the CLint scaled at 1 µM is 155 mL/min/kg in data set [2] and less than 9.2 mL/min/kg in data set [3]. In addition, the “Pred CLhep (h)” value in data set [2] is reported as 18.3 mL/min/kg. Also, in data set [3], the “Pred CLhep (r)” value is on record as less than 14.7 mL/min/kg. The fraction unbound at […] in data set [4] (setting [5]) is 0.003; in data set [4] (summary of Table 1, read-out: plasma protein binding) it was less than 0.01. In addition, the GI50 in the data set with L0 CSCs was 5.01e-07 M; in the data set on L1 CSCs (setting [7]) it was 1.26e-05 M; in the data set on L1 CSCs (setting [8]), 1.26e-05 M; in the data set with DI318 CSCs (setting [9]), 7.94e-07 M; in the data set on DI318 CSCs (DI318, 0 Gy, read-out: log(GI50) (converted)), 2e-06 M; with DI318 CSCs (setting [10]) it was 1.58e-06 M. Besides, in the data set on L1 CSCs, the “log(GI50)” value was -4.9 M. Moreover, the Ki on WDR5 worked out at 0.03 ± 0.01 nM.
